Source: publication PMC9852833, “Functional evaluation of cyclosporine metabolism by CYP3A4 variants and potential drug interactions” (Frontiers in Pharmacology, 2023)
Blank lines part the entries; values can stand above or below the compound they belong to.

Assays:
[1] = system: metabolism of CsA in rat liver microsomes (RLMs); assay: Inhibition of CsA metabolism in rat liver microsomes (RLMs); settings: for Inhibitory rate on the metabolism of CsA: screen of 132 drugs, RLMs […], Tris-HCl, NADPH 1 mM, AM1 by UPLC-MS/MS; for Inhibitory effect on the metabolism of CsA (in words): RLMs, comparison of five antihypertension drugs (Figure 2C)
Description: (§1) The concentrations of CsA, its main metabolite AM1, and diazepam (IS) were detected by UPLC–MS/MS equipped with a triple quadrupole and electrospray ionization (ESI) source. […] Briefly, the analytes were separated on a UPLC BEH C18 column (2.1 mm × 50 mm, 1.7 μm particle size). […] Solvent A (0.1% formic acid) and solvent B (acetonitrile) were applied as the mobile phase, with a gradient elution at a flow rate of 0.4 ml/min and an injection volume of 4 μl.
(§2) Reduced nicotinamide adenine dinucleotide phosphate (NADPH) (1 mmol/L) was added into the mixture after preincubation at 37°C for 5 min to initiate the reaction. The mixture was incubated for another 40 min, then cooled at −80°C to suspend the reaction. Then, 400 μl of acetonitrile and 20 μl of diazepam (200 ng/ml) were added to the frozen mixture. The mixtures were vortexed for 2 min and centrifuged at 13,000 rpm for 10 min. Finally, 4 μl of the mixture was injected for UPLC-MS/MS analysis.
(§3) A 200 μl system was incubated with either RLMs or HLMs (at a concentration of 0.15 mg/ml) containing drugs, CsA, RLMs or HLMs (all at a concentration of 0.15 mg/ml), Tris-HCl buffer, and 10 μl of NADPH (1 mM). […] The rest of the operation was the same as already described.

[2] = Pharmacokinetics of CsA and AM1 in rats with or without nimodipine or nisoldipine; assay type: in vivo, Sprague–Dawley rats; settings: male SD rats, plasma, UPLC-MS/MS, mean ± SD n = 6
Description: Sprague–Dawley male rats weighing 200–250 g were purchased from Shanghai Laboratory Animal Center (SLAC). After 2 weeks of laboratory adaptation, the rats were randomly divided into three groups with six rats in each group. […] All drugs were orally administered. […] The collected blood samples were centrifuged to obtain the plasma. Then, 150 μl of acetonitrile and 20 μl of diazepam (IS; 100 ng/ml) were added to 50 μl of plasma, mixed and vortexed for 2 min, centrifuged for 10 min, and 4 μl of the supernatant was used for UPLC-MS/MS injection analysis.
The pharmacokinetic parameters were evaluated by DAS 3.0.

[3] = system: metabolism of CsA in human liver microsomes (HLMs); CYP3A4; settings: comparison of five antihypertension drugs (Figure 2D)
Description: as §1, §2, §3

[4] = Inhibition of CsA metabolism in rat liver microsomes (RLMs); settings: SD
Description: as §1, §2, §3

[5] = metabolite after CsA 40 mg/kg oral + nimodipine 24 mg/kg oral
[6] = metabolite after CsA 40 mg/kg oral + nisoldipine 2 mg/kg oral
[7] = metabolite after CsA 40 mg/kg oral alone

- Inhibitory rate on the metabolism of CsA [1]: greater than 80%
SMILES: C=CC[C@@H]1/C=C(\C)C[C@H](C)C[C@H](OC)[C@H]2O[C@@](O)(C(=O)C(=O)N3CCCC[C@H]3C(=O)O[C@H](/C(C)=C/[C@@H]3CC[C@@H](O)[C@H](OC)C3)[C@H](C)[C@@H](O)CC1=O)[C@H](C)C[C@@H]2OC [tacrolimus, Tacrolimus]

- Inhibitory rate on the metabolism of CsA [1]: greater than 80%
SMILES: CO[C@H]1C[C@@H]2CC[C@@H](C)[C@@](O)(O2)C(=O)C(=O)N2CCCC[C@H]2C(=O)O[C@H]([C@H](C)C[C@@H]2CC[C@@H](OCCO)[C@H](OC)C2)CC(=O)[C@H](C)/C=C(\C)[C@@H](O)[C@@H](OC)C(=O)[C@H](C)C[C@H](C)/C=C/C=C/C=C/1C [everolimus, Everolimus]

SMILES: CCOC(=O)C1=C(C)NC(C)=C(C(=O)OC)C1c1cccc(Cl)c1Cl (stereo not shown) [felodipine]
- Inhibitory effect on the metabolism of CsA (in words) [1]: almost completely blocked the metabolism of CsA

- Inhibitory rate on the metabolism of CsA [1]: greater than 80%
SMILES: C[C@@H](c1ncncc1F)[C@](O)(Cn1cncn1)c1ccc(F)cc1F [voriconazole, Voriconazole]

- AUC(0-t) of AM1 [2, 5]: 3,291.60 ± 1,213.46 μg/L·h
- AUC(0-∞) of AM1 [2, 5]: 3,504.89 ± 1,223.40 μg/L·h
- CLz/F of AM1 [2, 5]: 207 ± 60 mL/min/kg
- Cmax of AM1 [2, 5]: 192.68 ± 69.42 ng/mL
- Tmax of AM1 [2, 5]: 7.00 ± 2.68 h
- Vz/F of AM1 [2, 5]: 198.16 ± 99.97 L/kg
- t1/2z of AM1 [2, 5]: 10.83 ± 3.52 h
- AUC(0-t) of AM1 [2, 6]: 1,548.46 ± 482.43 μg/L·h
- AUC(0-∞) of AM1 [2, 6]: 2,128.73 ± 887.82 μg/L·h
- CLz/F of AM1 [2, 6]: 354.3 ± 122 mL/min/kg
- Cmax of AM1 [2, 6]: 110.32 ± 19.52 ng/mL
- Tmax of AM1 [2, 6]: 6.17 ± 1.60 h
- Vz/F of AM1 [2, 6]: 494.23 ± 201.15 L/kg
- t1/2z of AM1 [2, 6]: 19.58 ± 13.45 h
- AUC(0-t) of AM1 [2, 7]: 2,275.37 ± 620.96 μg/L·h
- AUC(0-∞) of AM1 [2, 7]: 2,542.74 ± 779.21 μg/L·h
- CLz/F of AM1 [2, 7]: 283.8 ± 88.5 mL/min/kg
- Cmax of AM1 [2, 7]: 141.21 ± 30.64 ng/mL
- Tmax of AM1 [2, 7]: 6.83 ± 1.33 h
- Vz/F of AM1 [2, 7]: 264.78 ± 145.01 L/kg
- t1/2z of AM1 [2, 7]: 12.10 ± 9.00 h
SMILES: CC[C@@H]1NC(=O)[C@H]([C@H](O)[C@H](C)C/C=C/CO)N(C)C(=O)[C@H](C(C)C)N(C)C(=O)[C@H](CC(C)C)N(C)C(=O)[C@H](CC(C)C)N(C)C(=O)[C@@H](C)NC(=O)[C@H](C)NC(=O)[C@H](CC(C)C)N(C)C(=O)[C@H](C(C)C)NC(=O)[C@H](CC(C)C)N(C)C(=O)CN(C)C1=O [AM1, CsA M-17]

- Inhibitory rate on the metabolism of CsA [1]: greater than 80%
SMILES: C[C@@H](c1nc(-c2ccc(C#N)cc2)cs1)[C@](O)(Cn1cncn1)c1cc(F)ccc1F [isavuconazole, Isavuconazole]

SMILES: OCCOc1ccc(/C(=C(/CCCl)c2ccccc2)c2ccccc2)cc1 [ospemifene]
- Inhibitory rate on the metabolism of CsA [1]: greater than 80%

SMILES: COC(=O)C1=C(C)NC(C)=C(C(=O)OCC(C)C)C1c1ccccc1[N+](=O)[O-] (stereo not shown) [nisoldipine, Nisoldipine]
- Inhibitory effect on the metabolism of CsA (in words) [3]: almost completely blocked the metabolism of CsA
- IC50 [4]: 16.2 ± 0.78 µM
- Inhibitory effect on the metabolism of CsA (in words) [1]: almost completely blocked the metabolism of CsA
- Inhibitory rate on the metabolism of CsA [1]: greater than 80%

- Inhibitory rate on the metabolism of CsA [1]: greater than 80%
SMILES: N#CC1(c2ccc(NC(=O)c3cccnc3NCc3ccncc3)cc2)CCCC1 [apatinib, Apatinib]

- Inhibitory rate on the metabolism of CsA [1]: greater than 80%
SMILES: Cc1cccc(C)c1OCC(=O)N[C@@H](Cc1ccccc1)[C@@H](O)C[C@H](Cc1ccccc1)NC(=O)[C@H](C(C)C)N1CCCNC1=O [lopinavir, Lopinavir]

SMILES: COCCOC(=O)C1=C(C)NC(C)=C(C(=O)OC(C)C)C1c1cccc([N+](=O)[O-])c1 (stereo not shown) [nimodipine, Nimodipine]
- Inhibitory effect on the metabolism of CsA (in words) [1]: almost completely blocked the metabolism of CsA
